Data: patent US8569264B2, “Antibacterial 4,5-substituted aminoglycoside analogs having multiple substituents” (ISIS Pharmaceuticals, Inc., priority 2005, dated 2013)
≈ marks a conversion by molar mass, not a printed value.

How the values were obtained:
[1] = tested on: P. vulgaris ATCC 8427; assay: MIC, P. vulgaris ATCC 8427; assay type: cell-based; conditions: for MIC: Proteus vulgaris
Description: (§1) The MIC assays are carried out in 150 μL volume in duplicate in 96-well clear flat-bottom plates. The bacterial suspension from an overnight culture growth in appropriate medium is added to a solution of test compound in 4% DMSO in water. Final bacterial inoculum is approximately 10^5-10^6 CFU/well. […] Both ampicillin and tetracycline are used as antibiotic-positive controls in each screening assay for S. pyogenes, E. coli imp-, E. coli, S. aureus, E. faecalis, K. pneumoniae and P. vulgaris. Ciprofloxacin is used as an antibiotic positive control in each screening assay for P. aeruginosa.
(§2) The following compounds were prepared using methods illustrated in the previous examples. The compounds were also examined in standard bacterial assays against E. Coli, S. Aureus, P. aurginosa, K. pneumoniae, P. vulgaris, and A. baumannii to determine activities. Each of the bacterial cultures that are available from ATCC (www.atcc.org) is identified by its ATCC number. A. baumannii is gentamicin sensitive Acinetobacter baumannii #2 from Walter Reed.

[2] = molecular target: 16S ribosomal subunit RNA target; assay: Mass spectrometry based binding assay (FTICR), 16S; conditions: FTICR mass spectrometry; run at 100 nM RNA; Example 105
How it was run: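 Binding to the 16S ribosomal subunit RNA target was measured by FTICR mass spectrometry. Ligands or ligand mixtures were prepared at several concentrations in 10 μL of aqueous 100 mM ammonium acetate buffer with 33% isopropyl alcohol. Samples were infused at 1 μL/min into a negative-mode electrospray source, and ions were held 1 sec in an RF-only hexapole. Complex/free RNA ratios versus ligand concentration were fitted to a binding polynomial to obtain KD.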

[3] = tested on: K. pneumoniae ATCC 10031; assay: MIC, K. pneumoniae ATCC 10031; assay type: cell-based; conditions: for MIC: Klebsiella pneumoniae
Description: as §1, §2

[4] = tested on: gentamicin sensitive Acinetobacter baumannii #2 from Walter Reed; assay: MIC, A. baumannii WReed 2; assay type: cell-based; conditions: for MIC: Acinetobacter baumannii
Description: as §1, §2

[5] = tested on: E. coli ATCC 25922; assay: MIC, E. coli ATCC 25922; assay type: cell-based; conditions: for MIC: Escherichia coli
Description: as §1, §2

[6] = tested on: P. aurginosa ATCC 29248; assay: MIC, P. aurginosa ATCC 29248; assay type: cell-based
Description: as §1, §2

[7] = tested on: S. aureus ATCC 13709; assay: MIC, S. aureus ATCC 13709; assay type: cell-based; conditions: for MIC: Staphylococcus aureus
Description: as §1, §2

[8] = tested on: P. aurginosa ATCC 25416; assay: MIC, P. aurginosa ATCC 25416; assay type: cell-based
Description: as §1, §2

[9] = molecular target: 18S ribosomal subunit RNA target; assay: Mass spectrometry based binding assay (FTICR), 18S; conditions: FTICR mass spectrometry; Example 105
How it was run: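 Ligands at varying concentrations were mixed with 2.5 or 5 μM RNA in 100 mM ammonium acetate with 33% isopropyl alcohol, then analysed by negative-mode ESI-FTICR. Complex/free RNA ion ratios plotted against ligand concentration were fitted to a second- or higher-order binding polynomial to give KD.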

[10] = tested on: Staphylococcus aureus (Smith Strain ATCC 13709); assay: Staphylococcus aureus mouse protection assay; assay type: in vivo, mice; conditions: for # Dead mice/Total mice in group: Staph Conc. 10^6, 10% Mucin, the 14th table
Description: Two of the novel aminoglycoside compounds of the invention were examined for their anitbacterial activity against staphylococcus aureus. Mice were fed with autoclaved commercial food pellets and sterile water ad libitum. Animals were inoculated intraperitoneally with 0.5 mL/mouse of the indicated concentration of S. aureus (ATCC 13709) containing 10% mucin. There were 10 mice in each treatment group and compounds were administered subcutaneously one and 3 hour after infection. Compounds 15a (R4═R5═CH3) and 15j (R4═H, R5═(CH2)2C6H5)) were used at 75 mg/kg, 37.5 mg/kg, 18.8 mg/kg, 9.4 mg/kg, 4.7 mg/kg, 2.3 mg/kg, 1.17 mg/kg and 0.5 mg/kg. Amakacin, paromomycin and neomycin were used as the positive controls at concentrations of 2 mg/kg, 1 mg/kg and 0.5 mg/kg.
Test compound was administered as an aqueous buffer solution (phosphate buffered saline (PBS), pH=7.4).

[11] = tested on: E. Coli; assay: MIC, E. Coli; assay type: cell-based
How it was run: (§3)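 Broth microdilution in duplicate, 150 μL: overnight-culture bacteria were added to compound in 4% DMSO in water. Final inoculum was about 10^5–10^6 CFU/well.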

[12] = tested on: S. Aureus; assay: MIC, S. Aureus; assay type: cell-based
How it was run: as §3

[13] = tested on: E. coli S30 bacterial extract (pBestLuc firefly luciferase reporter); assay: Coupled bacterial transcription/translation assay; assay type: biochemical; conditions: Example 105; read-out: Trans/Trans IC50
How it was run: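 Coupled transcription/translation of firefly luciferase from 1 μg pBestLuc (tac promoter) in E. coli S30 extract, with or without test compound. Reaction 35 min at 37° C., then functional luciferase detected by luminescence.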

[14] = Example 110, listed as 9p - sample 1
[15] = Example 110, listed as 9p - sample 2

In the case of `NCC1OC(OC2C(CO)OC(OC3C(O)C(N)CC(N)C3OC3OC(CO)C(O)C(O)C3N)C2OCCNCCc2ccccc2)C(N)C(O)C1O` (stereo not shown) [Compound 9p], the “MIC P. vulgaris ATCC 8427” value [1, 14] is reported as 2.5-5^ uM, the “MIC P. vulgaris ATCC 8427” value [1, 15] is reported as 20 to 40 µM and the “MIC P. vulgaris ATCC 8427” value ([1]; Example 111) is reported as greater than 40 µM. The Kd [2] was 100 nM, the “MIC K. pneumoniae ATCC 10031” value [3, 14] was 1.3 to 2.5 µM and the “MIC K. pneumoniae ATCC 10031” value [3, 15] was greater than 40 µM. The “MIC K. pneumoniae ATCC 10031” value ([3]; Example 111) was 2.5-5^ uM, the “MIC A. baumannii WReed 2” value [4, 14] was 2.5-5^ uM and the “MIC A. baumannii WReed 2” value [4, 15] was greater than 40 µM. For the same compound, the “MIC A. baumannii WReed 2” value ([4]; Example 111) was greater than 40 µM, the “MIC E. coli ATCC 25922” value [5, 14] was 5 to 10 µM and the “MIC E. coli ATCC 25922” value [5, 15] was greater than 40 µM. For the same compound, the “MIC E. coli ATCC 25922” value ([5]; Example 111) was 5 to 10 µM, the “MIC P. aurginosa ATCC 29248” value ([6]; Example 110) was greater than 40 µM and the “MIC P. aurginosa ATCC 29248” value ([6]; Example 111) was greater than 40 µM. For the same compound, the “MIC S. aureus ATCC 13709” value [7, 14] was 10 to 20 µM, the “MIC S. aureus ATCC 13709” value [7, 15] was 1.2 to 2.5 µM and the “MIC S. aureus ATCC 13709” value ([7]; Example 111) was 0.6 to 1.3 µM. The “MIC P. aurginosa ATCC 25416” value ([8]; Example 110) was greater than 40 µM, the “MIC P. aurginosa ATCC 25416” value ([8]; Example 111) was greater than 40 µM and the Kd [9] was 1300 nM. For the same compound, the “# Dead mice/Total mice in group” value ([10]; 0.1 mg/kg in PBS pH=7.4) was 5/10 (10% Mucin), the “# Dead mice/Total mice in group” value ([10]; 0.5 mg/kg in PBS pH=7.4) was 0/10 (10% Mucin) and the “# Dead mice/Total mice in group” value ([10]; 1 mg/kg in PBS pH=7.4) was 0/10 (10% Mucin). For the same compound, the “# Dead mice/Total mice in group” value ([10]; 2 mg/kg in PBS pH=7.4) was 0/10 (10% Mucin), the “# Dead mice/Total mice in group” value ([10]; 4.5 mg/kg in PBS pH=7.4) was 0/10 (10% Mucin) and the “# Dead mice/Total mice in group” value ([10]; 9 mg/kg in PBS pH=7.4) was 0/10 (10% Mucin). The “# Dead mice/Total mice in group” value ([10]; 18 mg/kg in PBS pH=7.4) was 0/10 (10% Mucin), the “# Dead mice/Total mice in group” value ([10]; 37 mg/kg in PBS pH=7.4) was 0/10 (10% Mucin) and the “# Dead mice/Total mice in group” value ([10]; 75 mg/kg in PBS pH=7.4) was 0/10 (10% Mucin). For the same compound, the “# Dead mice/Total mice in group” value ([10]; […] in PBS pH=7.4) was 1/10 (10% Mucin), the smallest protective dose ([10]; protective at doses as small as, summary of the 14th table) was 0.25 mg/kg and the “prevention of lethal bacterial infections in mice” value ([10]; result in words, summary of the 14th table) was “effective at preventing lethal bacterial infections in mice”. The “MIC E. Coli.” value ([11]; Example 105) was 3 to 6 µM, the “MIC S. Aureus” value ([12]; Example 105) was 0.3 to 0.6 µM and the IC50 [13] was 1100 nM.

In the case of `NCC[C@H](O)C(=O)N[C@@H]1C[C@H](N)[C@@H](O[C@H]2O[C@H](CO)[C@@H](O)[C@H](O)[C@H]2N)[C@H](O[C@@H]2O[C@H](CO)[C@@H](O[C@H]3O[C@@H](CN)[C@@H](O)[C@H](O)[C@H]3N)[C@H]2O)[C@H]1O` [Compound 67, N-1-haba paromomycin], the MIC ([1]; ATCC8427, Example 110) is reported as 5 to 10 µM (≈ 3.58 to 7.17 µg/mL), the MIC ([1]; ATCC8427, Example 111) is reported as 2.5 to 5 µM (≈ 1.79 to 3.58 µg/mL) and the MIC ([3]; ATCC10031, Example 110) is reported as 0.6 to 1.3 µM (≈ 0.43 to 0.932 µg/mL). The MIC ([3]; ATCC10031, Example 111) was 0.6 to 1.3 µM (≈ 0.43 to 0.932 µg/mL), the MIC ([4]; Example 110) was 2.5 to 5 µM (≈ 1.79 to 3.58 µg/mL) and the MIC ([4]; Example 111) was 5 to 10 µM (≈ 3.58 to 7.17 µg/mL). The MIC ([5]; ATCC25922, Example 110) was 2.5 to 5 µM (≈ 1.79 to 3.58 µg/mL), the MIC ([5]; ATCC25922, Example 111) was 5 to 10 µM (≈ 3.58 to 7.17 µg/mL) and the MIC ([6]; Example 110) was 5 to 10 µM (≈ 3.58 to 7.17 µg/mL). For the same compound, the MIC ([6]; Example 111) was 5 to 10 µM (≈ 3.58 to 7.17 µg/mL), the MIC ([7]; ATCC13709, Example 110) was 20 to 40 µM (≈ 14.3 to 28.7 µg/mL) and the MIC ([7]; ATCC13709, Example 111) was 1.3 to 2.5 µM (≈ 0.932 to 1.79 µg/mL). The MIC ([8]; Example 110) was 1.3 to 2.5 µM (≈ 0.932 to 1.79 µg/mL), the MIC ([8]; Example 111) was 10 to 20 µM (≈ 7.17 to 14.3 µg/mL) and the MIC ([11]; Escherichia coli, Example 107) was 5 to 10 µM (≈ 3.58 to 7.17 µg/mL). It also gave an MIC ([12]; Staphylococcus aureus, Example 107) of 1.3 to 2.5 µM (≈ 0.932 to 1.79 µg/mL).
